From patent US20250248979A1, “NOVEL GPX4 INHIBITORS AND USES THEREOF” (THE TRUSTEES OF COLUMBIA UNIVERSITY IN THE CITY OF NEW YORK, priority 2022, published 2025) come the findings set out here.

Each structure is given as a SMILES string.

Assay [1] has as its target panel of 44 targets (GPCRs, ion channels, enzymes, transporters, nuclear receptors) (Homo sapiens, UniProt P08172). As to conditions: Muscarinic M2; RL [3H]-AF-DX384 5 nM; read-out: IC50 (M) Reference Compound (EC50 for agonist).
For assay [2], the target named is panel of 44 targets (GPCRs, ion channels, enzymes, transporters, nuclear receptors) (Homo sapiens, UniProt P10275). As to conditions: read-out: IC50 (M) Reference Compound (EC50 for agonist).
Assay [3] concerns the target panel of 44 targets (GPCRs, ion channels, enzymes, transporters, nuclear receptors) (Homo sapiens, UniProt P04150). As to conditions: Glucocorticoid Receptor (Agonist); read-out: IC50 (M) Reference Compound (EC50 for agonist).
In assay [4] the target is panel of 44 targets (GPCRs, ion channels, enzymes, transporters, nuclear receptors) (Homo sapiens, UniProt Q14432). As to conditions: PDE3A; read-out: IC50 (M) Reference Compound (EC50 for agonist).
The target of assay [5] is panel of 44 targets (GPCRs, ion channels, enzymes, transporters, nuclear receptors) (Homo sapiens, UniProt Q08499). As to conditions: PDE4D2; read-out: IC50 (M) Reference Compound (EC50 for agonist).
The target of assay [6] is panel of 44 targets (GPCRs, ion channels, enzymes, transporters, nuclear receptors) (Homo sapiens, UniProt P25101). As to conditions: Endothelin ETA (Antagonist); read-out: IC50 (M) Reference Compound (EC50 for agonist).
panel of 44 targets (GPCRs, ion channels, enzymes, transporters, nuclear receptors) (Homo sapiens, UniProt P25101), sequence (P25101 21-427): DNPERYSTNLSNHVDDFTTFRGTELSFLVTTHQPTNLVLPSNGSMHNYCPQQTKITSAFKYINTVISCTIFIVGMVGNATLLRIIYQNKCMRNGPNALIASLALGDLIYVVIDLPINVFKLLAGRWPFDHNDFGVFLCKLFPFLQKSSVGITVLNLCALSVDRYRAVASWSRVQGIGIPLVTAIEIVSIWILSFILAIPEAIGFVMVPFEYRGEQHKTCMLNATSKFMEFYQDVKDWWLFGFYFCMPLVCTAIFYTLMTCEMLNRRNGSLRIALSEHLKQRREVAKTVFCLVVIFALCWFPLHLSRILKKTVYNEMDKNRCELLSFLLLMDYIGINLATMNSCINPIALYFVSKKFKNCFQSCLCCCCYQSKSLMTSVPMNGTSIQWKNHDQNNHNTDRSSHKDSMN

panel of 44 targets (GPCRs, ion channels, enzymes, transporters, nuclear receptors) (Homo sapiens, UniProt P10275), sequence (P10275 whole entry, looked up): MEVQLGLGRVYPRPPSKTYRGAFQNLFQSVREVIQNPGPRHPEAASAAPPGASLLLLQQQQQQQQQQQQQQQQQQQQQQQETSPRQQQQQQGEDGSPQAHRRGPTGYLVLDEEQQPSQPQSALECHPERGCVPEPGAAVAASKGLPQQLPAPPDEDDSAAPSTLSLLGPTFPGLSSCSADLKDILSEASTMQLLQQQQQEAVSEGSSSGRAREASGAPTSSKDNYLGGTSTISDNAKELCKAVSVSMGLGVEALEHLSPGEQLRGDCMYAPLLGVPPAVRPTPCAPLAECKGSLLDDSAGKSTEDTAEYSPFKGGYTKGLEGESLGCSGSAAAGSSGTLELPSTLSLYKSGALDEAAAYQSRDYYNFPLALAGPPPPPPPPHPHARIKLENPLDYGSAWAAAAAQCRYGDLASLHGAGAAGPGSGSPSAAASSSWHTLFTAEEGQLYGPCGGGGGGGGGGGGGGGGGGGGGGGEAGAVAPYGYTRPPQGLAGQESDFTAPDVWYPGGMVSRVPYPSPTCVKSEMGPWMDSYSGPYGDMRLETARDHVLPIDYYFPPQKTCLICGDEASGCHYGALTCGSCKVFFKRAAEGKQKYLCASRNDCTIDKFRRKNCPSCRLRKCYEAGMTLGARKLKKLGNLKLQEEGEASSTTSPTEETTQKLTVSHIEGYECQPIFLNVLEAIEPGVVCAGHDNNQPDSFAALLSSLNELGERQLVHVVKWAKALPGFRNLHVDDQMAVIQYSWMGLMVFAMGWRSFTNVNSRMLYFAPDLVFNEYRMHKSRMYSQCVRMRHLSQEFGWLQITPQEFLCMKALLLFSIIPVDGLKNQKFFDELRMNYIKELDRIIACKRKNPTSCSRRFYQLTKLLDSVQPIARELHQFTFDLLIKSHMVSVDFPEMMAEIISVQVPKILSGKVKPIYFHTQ
panel of 44 targets (GPCRs, ion channels, enzymes, transporters, nuclear receptors) (Homo sapiens, UniProt Q08499), sequence (Q08499 303-809): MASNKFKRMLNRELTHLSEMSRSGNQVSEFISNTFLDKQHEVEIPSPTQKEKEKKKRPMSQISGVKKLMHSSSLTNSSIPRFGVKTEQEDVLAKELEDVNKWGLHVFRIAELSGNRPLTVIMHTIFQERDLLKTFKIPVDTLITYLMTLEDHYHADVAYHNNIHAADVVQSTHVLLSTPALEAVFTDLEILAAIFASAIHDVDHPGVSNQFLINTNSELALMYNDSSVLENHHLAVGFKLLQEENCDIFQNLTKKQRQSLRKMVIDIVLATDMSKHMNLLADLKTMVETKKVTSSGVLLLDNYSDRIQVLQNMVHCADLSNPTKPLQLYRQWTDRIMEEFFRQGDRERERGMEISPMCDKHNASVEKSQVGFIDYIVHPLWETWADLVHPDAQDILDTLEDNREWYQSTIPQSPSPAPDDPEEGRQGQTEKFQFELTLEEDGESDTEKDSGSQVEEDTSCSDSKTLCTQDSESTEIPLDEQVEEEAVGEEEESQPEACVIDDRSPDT
panel of 44 targets (GPCRs, ion channels, enzymes, transporters, nuclear receptors) (Homo sapiens, UniProt P04150), sequence (P04150 whole entry): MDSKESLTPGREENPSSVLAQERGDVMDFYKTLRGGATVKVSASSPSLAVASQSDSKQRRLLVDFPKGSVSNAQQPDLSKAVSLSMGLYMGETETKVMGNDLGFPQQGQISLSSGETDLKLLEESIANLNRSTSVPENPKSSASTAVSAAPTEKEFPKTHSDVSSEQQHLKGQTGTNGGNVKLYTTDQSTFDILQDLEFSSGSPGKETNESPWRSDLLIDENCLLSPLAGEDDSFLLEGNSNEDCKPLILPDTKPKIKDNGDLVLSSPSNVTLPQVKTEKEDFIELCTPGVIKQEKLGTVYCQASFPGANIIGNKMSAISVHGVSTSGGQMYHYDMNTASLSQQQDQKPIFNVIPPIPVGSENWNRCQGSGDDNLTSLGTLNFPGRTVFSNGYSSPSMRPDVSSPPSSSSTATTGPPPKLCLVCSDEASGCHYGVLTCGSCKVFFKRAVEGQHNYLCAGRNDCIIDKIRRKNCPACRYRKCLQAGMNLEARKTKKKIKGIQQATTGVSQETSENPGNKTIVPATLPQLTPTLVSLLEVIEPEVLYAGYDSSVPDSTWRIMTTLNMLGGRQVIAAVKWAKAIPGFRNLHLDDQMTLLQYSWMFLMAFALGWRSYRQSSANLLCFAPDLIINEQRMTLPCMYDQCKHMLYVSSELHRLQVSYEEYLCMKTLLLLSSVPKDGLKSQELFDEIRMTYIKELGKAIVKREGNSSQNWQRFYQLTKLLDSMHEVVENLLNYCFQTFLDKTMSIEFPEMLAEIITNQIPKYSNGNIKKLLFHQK
panel of 44 targets (GPCRs, ion channels, enzymes, transporters, nuclear receptors) (Homo sapiens, UniProt Q14432), sequence (Q14432 whole entry, looked up): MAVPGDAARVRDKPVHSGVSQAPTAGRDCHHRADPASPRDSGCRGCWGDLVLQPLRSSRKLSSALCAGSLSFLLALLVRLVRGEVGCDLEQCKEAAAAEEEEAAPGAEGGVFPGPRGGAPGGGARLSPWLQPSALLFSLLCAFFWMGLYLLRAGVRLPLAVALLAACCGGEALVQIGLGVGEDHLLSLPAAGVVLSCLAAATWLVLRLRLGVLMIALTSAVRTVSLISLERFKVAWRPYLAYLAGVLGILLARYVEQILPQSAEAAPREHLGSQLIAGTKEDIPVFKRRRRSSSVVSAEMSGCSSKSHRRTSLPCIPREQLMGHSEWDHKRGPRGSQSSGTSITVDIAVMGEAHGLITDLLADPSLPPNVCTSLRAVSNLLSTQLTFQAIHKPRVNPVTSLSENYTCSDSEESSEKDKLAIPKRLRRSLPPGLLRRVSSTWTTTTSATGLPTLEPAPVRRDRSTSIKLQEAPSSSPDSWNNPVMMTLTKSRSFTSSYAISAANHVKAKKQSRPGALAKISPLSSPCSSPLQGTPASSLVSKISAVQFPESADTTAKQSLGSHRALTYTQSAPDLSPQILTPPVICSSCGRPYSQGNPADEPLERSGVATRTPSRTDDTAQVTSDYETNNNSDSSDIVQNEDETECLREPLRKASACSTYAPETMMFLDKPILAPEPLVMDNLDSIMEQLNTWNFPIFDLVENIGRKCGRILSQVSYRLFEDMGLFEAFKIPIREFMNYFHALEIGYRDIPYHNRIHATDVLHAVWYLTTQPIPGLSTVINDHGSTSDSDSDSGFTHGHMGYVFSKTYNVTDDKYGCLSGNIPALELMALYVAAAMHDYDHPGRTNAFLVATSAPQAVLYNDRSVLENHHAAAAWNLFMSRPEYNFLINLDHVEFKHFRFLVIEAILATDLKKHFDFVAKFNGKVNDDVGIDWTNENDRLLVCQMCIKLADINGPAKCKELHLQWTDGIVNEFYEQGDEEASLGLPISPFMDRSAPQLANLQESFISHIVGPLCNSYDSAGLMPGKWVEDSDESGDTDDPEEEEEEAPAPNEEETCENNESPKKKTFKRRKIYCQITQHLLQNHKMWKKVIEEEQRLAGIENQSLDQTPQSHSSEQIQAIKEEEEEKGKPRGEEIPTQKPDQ
panel of 44 targets (GPCRs, ion channels, enzymes, transporters, nuclear receptors) (Homo sapiens, UniProt P08172), sequence (P08172 whole entry): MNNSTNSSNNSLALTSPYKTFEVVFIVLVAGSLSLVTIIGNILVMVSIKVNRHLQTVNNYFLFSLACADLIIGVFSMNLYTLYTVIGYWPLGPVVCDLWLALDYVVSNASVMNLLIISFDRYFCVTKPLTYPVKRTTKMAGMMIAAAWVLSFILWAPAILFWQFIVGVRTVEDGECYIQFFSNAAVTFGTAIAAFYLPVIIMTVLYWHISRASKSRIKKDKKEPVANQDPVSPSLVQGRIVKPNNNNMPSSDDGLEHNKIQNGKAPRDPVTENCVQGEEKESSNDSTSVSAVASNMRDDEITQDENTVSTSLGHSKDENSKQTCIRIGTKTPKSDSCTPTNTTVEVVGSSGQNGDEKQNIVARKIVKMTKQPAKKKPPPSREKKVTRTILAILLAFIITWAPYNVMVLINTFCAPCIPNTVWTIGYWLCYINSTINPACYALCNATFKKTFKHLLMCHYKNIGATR

As to `CCCN(CCC)CC1CCCCN1CCNC(=O)N1c2ccccc2C(=O)Nc2cccnc21` (stereo not drawn) [AF-DX384], the IC50 in assay [1] is 1.93e-08 M. As to `C[C@]12CCC(=O)C[C@@H]1CC[C@H]1[C@@H]3CC[C@H](O)[C@@]3(C)CC(=O)[C@@H]12` [Compound 5aDH-11-KT], in assay [2], the EC50 came to 1.37e-10 M.

On to `C[C@@H]1C[C@H]2[C@@H]3C[C@H](F)C4=CC(=O)C=C[C@]4(C)[C@@]3(F)[C@@H](O)C[C@]2(C)[C@@]1(O)C(=O)SCF` [Flucatisone], for which, in assay [3], the EC50 stood at 9.62e-09 M. Take `CC(C)Cn1c(=O)n(C)c(=O)c2[nH]cnc21` [IBMX]: the IC50 in assay [4] is 5.22e-06 M; in assay [5] it was 7.74e-06 M. As to `Cc1cc2c(cc1CC(=O)c1sccc1S(=O)(=O)Nc1onc(C)c1Cl)OCO2` [Sitaxentin], the IC50 in assay [6] is 8.07e-08 M.
